{
  "source": "patent US12201628B2",
  "about": "“Neuronal modulation” (priority 2013, dated 2025)",
  "key": {"[1]": {"tested_on": "solid melanoma (B16) tumor and Lewis lung carcinoma (LLC)", "assay": "Tumor growth after VTA dopaminergic neuron activation", "assay_type": "in vivo, mice", "description": "For the expression of DREADDs, injected Cre-dependent adeno-associated virus (AAV) vector expressing DREADDs fused with red fluorescent protein mCherry, was injected into the VTA of tyrosine hydroxylase (TH)-Cre transgenic mice.\nThen the mice were challenged with 500×10^3 LLC cells (Lewis Lung carcinoma Cells) or 200×10^3 B16 melanoma tumor cells (gently injected subcutaneously into the middle right flank of each animal).\n28 days from the tumor cells injection a group of the tumor-bearing animals were euthanized to dissect the tumor tissue and check for metastasis (FIG. 12). The spleen bone marrow and tumors were isolated to characterize the changes in immune cells. The CyTOF was used to analyze the immune system as well as FACS analysis."}, "GFP-expressing E. coli": {"tested_on": "GFP-expressing E. coli", "assay": "In-vivo E. coli phagocytosis", "design": "species or system mice", "conditions": "E. coli injected 24 h after VTA activation, analysed 2 h later; vs controls", "description": "Virus-injected mice were IP treated with CNO. Twenty four hours later, GFP-expressing E. coli (MG165K12; 8×10^8 CFU/mouse) were injected IP. After two hours, the peritoneal lymphocytes were collected by peritoneal lavage. For peritoneal lavage, the mice were sacrificed and their skin was cleaned with 70% ethanol. Then, 5 ml ice-cold PBS containing 1% fetal bovine serum were injected into the peritoneum, followed by gentle massage to allow distribution of the lavage fluid throughout the peritoneal cavity. The fluid was then collected using a 5 ml syringe attached to a 21-gauge needle, and cells were then washed twice in FACS staining buffer (PBS containing 1% bovine serum albumin and 0.05% sodium azide). In order to evaluate the degree of monocyte phagocytosis of the fluorescent bacteria, peritoneal lavage cells were stained with PerCP-conjugated anti-CD11b antibody (M1/70, Biolegend). All samples were analyzed on an LSRFortessa cell analyzer (BD Biosciences, NJ). […]\nTo determine the effects of VTA activation on antibacterial activity in vivo, the VTA-dopaminergic neurons were activated, and 24 h later injected the mice with GFP-expressing E. coli. Two hours later, lymphocytes were extracted from the peritoneal cavity of the mice and determined by flow cytometry GFP levels; only cells that phagocytized the E. coli could express GFP."}, "VTA dopaminergic neurons": {"tested_on": "VTA dopaminergic neurons", "assay": "Conditional place preference (CPP) paradigm", "assay_type": "in vivo, mice", "conditions": "CNO 2.5 mg/kg", "description": "All behavioral tests were conducted during the same circadian period. The conditional place preference (CPP) test was performed in a rectangular cage with two chambers (25 cm×25 cm each), with a corridor (5 cm×5 cm) connecting the two chambers. The chambers differed in their visual cues and were designed so that mice will have no bias for a particular chamber. The CPP paradigm consisted of four sessions over four days and was conducted 30 days after the viral stereotactic injection. On day 1, individual mice were placed in the connecting corridor (in the same direction) and allowed to freely explore the entire apparatus for 15 minutes (pre-test). On day 2, mice were IP injected with CNO (2.5 mg/kg, Sigma-Aldrich) diluted in sterile saline in order to activate the VTA dopaminergic neurons and then the mice were confined to one of the chambers for 30 min. On day 3, mice were confined to the other chamber for 30 min, 10 min after an injection of sterile saline. On day 4, mice were placed in the center chamber and allowed to freely explore the entire apparatus for 15 minutes (post-test). To calculate the level of preference, the relative time (%) the mouse spent during post-test in the conditioned chamber (the chamber where it received the CNO injection) was divided by the relative time (%) the mouse spent in this chamber during the pre-test (post/pre ratio). Of note, mice in both groups were injected with CNO to control for the potential effects of CNO. The analysis was performed automatically using EthoVision software.\nBehavioral analysis (conditioned place preference; CPP): Three groups of mice were used in this experiment: mice injected with AAV virus encoding the hM3D (Gq), hM4D (Gi) or control carrying only mCherry. On day 1 the mice were given a chance to explore the apparatus for 5 minutes. […] At this stage the mice were only allowed access to one compartment of the apparatus and remains in the compartment for 30 minutes. Day 3: Mice were confounded to the other compartment. […] Time spent in each compartment was measured by motion detecting software (EthoVision). […]"}},
  "note": "Entries after “also recorded” stand apart in the source; their conditions may differ.",
  "data": [
    {"smiles": "C[N+]1([O-])CCN(C2=Nc3cc(Cl)ccc3Nc3ccccc32)CC1", "note": "[CNO, clozapine-N-oxide]", "values": [
      {"measurement": "tumor weight / size (B16 melanoma)", "setting": "[1]; CNO daily, two sessions of three days, Gq group vs control", "value": "Reduced tumor size"},
      {"measurement": "reduction in tumor size", "setting": "[1]; VTA-activated vs control mice, B16 melanoma and LLC", "value": "over 40%"},
      {"measurement": "abundance of CD11b+Gr1+ MDSCs", "setting": "[1]; VTA-activated vs control mice, spleen, bone marrow and tumor", "value": "significant reduction in the abundance; also recorded: reduced abundance of MDSCs"},
      {"measurement": "number of CD11b+GFP+ cells in the peritoneum", "setting": "GFP-expressing E. coli", "value": "increased number of CD11b+GFP+ cells"},
      {"measurement": "preference for conditioned chamber (CPP)", "setting": "VTA dopaminergic neurons; Gi (hM4D) mice", "value": "avoided the conditioned chamber"},
      {"measurement": "preference for conditioned chamber (CPP)", "setting": "VTA dopaminergic neurons; Gq (hM3D, VTA-activated) mice", "value": "exhibited a preference for the conditioned chamber; also recorded: increased preference to the conditioned chamber; also recorded: strong preference towards the chamber in which they were injected with CNO"},
      {"measurement": "preference for conditioned chamber (CPP)", "setting": "VTA dopaminergic neurons; control mice (mCherry only virus)", "value": "no such bias; also recorded: did not show a clear preference to any single chamber"}
    ]}
  ]
}
